# According to patent US12311049B2, “Formulation of ear drops and methods for delivery thereof for treating upper respiratory infections” (priority 2023, dated 2025):
# Assays:
# Type in all cases: cell-based
# SARS-CoV-2 XBB1.5 = test system: SARS-CoV-2 XBB1.5
# SARS-CoV-2 BA.1 = test system: SARS-CoV-2 BA.1
# SARS-CoV-2 XBB = test system: SARS-CoV-2 XBB
# [1] = test system: original WA1 viral strain of SARS-CoV-2; test: in vitro infectivity of SARS-CoV-2 to epithelial cells expressing ACE-2 and TMPRSS-2 (virus-NP protein in culture media); conditions: MOI 0.01
# SARS-CoV-2 BA.5 = test system: SARS-CoV-2 BA.5
# SARS-CoV-2 BA.2 = test system: SARS-CoV-2 BA.2
substance,measurement,setting,value
hemin,suppression of replication of SARS-CoV-2 XBB1.5,SARS-CoV-2 XBB1.5,significantly suppressed replication
same,dose response of inhibition of SARS-CoV-2 BA.1 (virus-NP protein levels),SARS-CoV-2 BA.1,dose-dependent inhibition
same,protection of cells against SARS-CoV-2 BA.1 infection,SARS-CoV-2 BA.1,protected cells
same,suppression of replication of SARS-CoV-2 XBB,SARS-CoV-2 XBB,significantly suppressed replication
same,"suppression of SARS-CoV-2 infection, original WA1 viral strain",[1],markedly suppressed
same,suppression of replication of SARS-CoV-2 BA.5,SARS-CoV-2 BA.5,significantly suppressed replication
same,suppression of replication of SARS-CoV-2 BA.2,SARS-CoV-2 BA.2,significantly suppressed replication
